Test results published in US20080207711A1, “Method for treating an ID2-related disorder” (priority 2007, published 2008).

System: Pkd2−/− mice
Assay: Treatment of pregnant female mice from a Pkd2+/- cross; newborn pups examined for kidney cysts, kidney size, edema and body size
Format: in vivo
Protocol: FIG. 1. […] (a) wild-type and (b) Pkd2^−/− kidneys without rosiglitazone treatment. (c) Pkd2^+/− and (d) Pkd2^−/− kidneys with rosiglitazone treatment.
Rosiglitazone, which may inhibit Id2 activity, alleviates the effects of Pkd loss of function mutations. This was shown by treating pregnant female mice from a cross between Pkd2^+/− mice with 80 mg/kg diet/day ciglitazone or rosiglitazone for ten days prior to delivery. […] Similarly, Id2 knockout mice were small. […] In contrast, ciglitazone treatment appeared to have no effect on newborn Pkd2^−/− mice.

[1] = mother treated 80 mg/kg diet/day for ten days prior to delivery

Compound: CC1(COc2ccc(CC3SC(=O)NC3=O)cc2)CCCCC1 (centres unmarked) [ciglitazone, 5-[4-[(1 methylcyclohexyl)methoxy]benzyl]thiazolidine-2,4-dione]
- effect on newborn Pkd2−/− mice [1]: no effect

Compound: CN(CCOc1ccc(CC2SC(=O)NC2=O)cc1)c1ccccn1 (centres unmarked) [rosiglitazone, 5-[4-[2-(N-methyl-N-(2-pyridyl)amino)ethoxy]benzyl]thiazolidine-2,4-dione]
- cyst formation in Pkd2−/− kidneys (FIG. 1, kidneys with vs without treatment): inhibits cyst formation
- body size of newborn pups [1]: small body size in six of newborn pups
- edema in Pkd2−/− pup [1]: no edema
- kidney size and morphology of Pkd2−/− pup (mother treated 80 mg/kg diet/day for ten days prior to delivery, compared to Pkd2−/− littermates of untreated mothers): kidneys of normal size and morphology
